Results as given in ChEMBL document CHEMBL5233271, “Discovering the Mechanisms of Wikstroelide E as a Potential HIV-Latency-Reversing Agent by Transcriptome Profiling” (J Nat Prod, 2021).
The source made the active and inactive calls.

Key:
[1] = system: Human immunodeficiency virus; assay: HIV-latency reversing activity in human NH2 cells at 10 nM pretreated with PKC inhibitor, Go6983 for 1 hr followed by compound addition and measured after 12 hrs by luciferase based assay; format: functional, organism-based
[2] = system: Human immunodeficiency virus; assay: HIV-latency reversing activity in human J-Lat Tat-GFP Clone A2 cells at 10 nM measured after 24 hrs by fluorescence based analysis; format: functional, organism-based
[3] = system: Human immunodeficiency virus; assay: HIV-latency reversing activity in human NH2 cells at 10 nM measured after 24 hrs by luciferase based assay; format: functional, organism-based
[4] = system: Human immunodeficiency virus; assay: Reactivation of latent HIV in human J-Lat Tat-GFP Clone A2 cells measured after 24 hrs by fluorescence based analysis; format: functional, organism-based; conditions: dose 0.5-40 nM
[5] = system: Human immunodeficiency virus; assay: Reactivation of latent HIV in human J-Lat 2D10 cells measured after 24 hrs by fluorescence based analysis; format: functional, organism-based; conditions: dose 0.5-40 nM
[6] = system: Human immunodeficiency virus; assay: Reactivation of latent HIV in human NH1 cells measured after 24 hrs by luciferase based analysis; format: functional, organism-based; conditions: dose 0.5-10 nM
[7] = system: Human immunodeficiency virus; assay: Reactivation of latent HIV in human NH2 cells at 10 nM by luciferase based analysis; format: functional, organism-based; conditions: time 6-36 hrs, TDE = time-dependent effect
[8] = system: Human immunodeficiency virus; assay: Reactivation of latent HIV in human NH2 cells measured after 24 hrs by luciferase based analysis; format: functional, organism-based; conditions: dose 0.5-10 nM
[9] = system: Human immunodeficiency virus; assay: Reactivation of latent HIV in human J-Lat Tat-GFP Clone A2 cells at 10 nM by fluorescence based analysis; format: functional, organism-based; conditions: time 6-36 hrs, TDE = time-dependent effect
[10] = system: Human immunodeficiency virus; assay: Reactivation of latent HIV in human J-Lat 2D10 cells at 10 nM by fluorescence based analysis; format: functional, organism-based; conditions: time 6-36 hrs, TDE = time-dependent effect
[11] = system: Human immunodeficiency virus; assay: Reactivation of latent HIV in human NH1 cells at 10 nM by luciferase based analysis; format: functional, organism-based; conditions: time 6-36 hrs, TDE = time-dependent effect
[12] = system: J-Lat Tat-GFP Clone A2; assay: Cytotoxicity against human J-Lat Tat-GFP Clone A2 cells at 1 uM incubated for 72 hrs; format: toxicity, cell-based; conditions: j-lat tat-gfp clone a2, 72 h
[13] = system: NH2; assay: Activation of NFkappaB signalling pathway in human NH2 cells assessed as induction of IkappaBalpha degradation measured after 1 hr by Western blot analysis; format: cell-based; conditions: filed as activator, dose 0-80 nM
[14] = system: J-Lat Tat-GFP Clone A2; assay: Activation of NFkappaB signalling pathway in human J-Lat Tat-GFP Clone A2 cells assessed as induction of IkappaBalpha degradation measured after 1 hr by Western blot analysis; format: cell-based; conditions: filed as activator, dose 0-80 nM
[15] = system: NH2; assay: Activation of NFkappaB signalling pathway in human NH2 cells assessed as induction of IkappaBalpha degradation at 40 nM by Western blot analysis; format: cell-based; conditions: filed as activator, time 5-120 min, TDE = time-dependent effect
[16] = system: J-Lat Tat-GFP Clone A2; assay: Activation of NFkappaB signalling pathway in human J-Lat Tat-GFP Clone A2 cells assessed as induction of IkappaBalpha degradation at 40 nM by Western blot analysis; format: cell-based; conditions: filed as activator, time 5-120 min, TDE = time-dependent effect
[17] = system: NH2; assay: Activation of NFkappaB signalling pathway in human NH2 cells assessed as increase in translocation of p65 from cytoplasm to nucleus at 40 nM measured after 15 to 60 mins by Western blot analysis; format: cell-based; conditions: filed as activator, time 15-60 min
[18] = system: J-Lat Tat-GFP Clone A2; assay: Activation of NFkappaB signalling pathway in human J-Lat Tat-GFP Clone A2 cells assessed as increase in translocation of p65 from cytoplasm to nucleus at 40 nM measured after 15 to 60 mins by Western blot analysis; format: cell-based; conditions: filed as activator, time 15-60 min
[19] = system: Human immunodeficiency virus; assay: HIV-latency reversing activity in human NH2 cells at 10 nM pretreated with PDTC for 1 hr followed by compound addition and measured after 12 hrs by luciferase based assay; format: functional, organism-based
[20] = system: Human immunodeficiency virus; assay: Reactivation of latent HIV in human J-Lat Tat-GFP Clone A2 cells assessed as increase in GFP expression at 0 to 20 nM measured after 24 hrs by fluorescence microscopy; format: functional, organism-based; conditions: dose 0-20 nM
[21] = system: Human immunodeficiency virus; assay: Reactivation of latent HIV in human NH1 cells assessed as fold change measured after 24 hrs by luciferase based analysis relative to -prostratin; format: functional
[22] = system: Human immunodeficiency virus; assay: Reactivation of latent HIV in human NH2 cells assessed as fold change measured after 24 hrs by luciferase based analysis relative to -prostratin; format: functional
[23] = system: Human immunodeficiency virus; assay: Reactivation of latent HIV in human J-Lat Tat-GFP Clone A2 cells assessed as increase in GFP expression at 10 nM by live fluorescence imaging analysis; format: functional, organism-based; conditions: time 6-36 hrs, TDE = time-dependent effect
[24] = system: J-Lat Tat-GFP Clone A2; assay: Upregulation of BZW1 gene expression in human J-Lat Tat-GFP Clone A2 cells at 10 nM measured after 6 hrs by transcriptome analysis; format: functional, cell-based
[25] = system: J-Lat Tat-GFP Clone A2; assay: Upregulation of CD69 gene expression in human J-Lat Tat-GFP Clone A2 cells at 10 nM measured after 6 hrs by transcriptome analysis; format: functional, cell-based
[26] = system: J-Lat Tat-GFP Clone A2; assay: Upregulation of CHCHD2 gene expression in human J-Lat Tat-GFP Clone A2 cells at 10 nM measured after 6 hrs by transcriptome analysis; format: functional, cell-based

C=C(C)[C@]12C[C@@H](C)[C@@]34O[C@]5(CCCCCCC[C@H](C)[C@H]6[C@H](C)C(=O)[C@@](O)([C@H](O)[C@@]7(CO)O[C@H]7[C@H]3[C@H]1O5)[C@@H]64)O2
2500: fold change (FC) [21] | fold change (FC) [22]
Non-Toxic: Activity [12]
active: Activity [2] | Activity [3] | Activity [4] Dose-Dependent Effect | Activity [5] Dose-Dependent Effect | Activity [6] Dose-Dependent Effect | Activity [7] Tde | Activity [8] Dose-Dependent Effect | Activity [9] Tde | Activity [10] Tde | Activity [11] Tde | Activity [13] Dose-Dependent Effect | Activity [14] Dose-Dependent Effect | Activity [15] Tde | Activity [16] Tde | Activity [17] | Activity [18] | Activity [20] | Activity [23] Tde | Activity [24] | Activity [25] | Activity [26]
inactive: Activity [1] | Activity [19]
